The results in this text go back to a melting point compilation (Tetko et al.; mined from patent text by program, amines drawn as free bases though some values may be those of a salt).

As a reminder, the melting point is the temperature, or range, at which the solid turns liquid.

On to `CC1c2cc(F)ccc2-c2ccc(F)cc2N1C(=O)c1ccc(O)cc1` (stereo unspecified), for which the melting point was in the range of 138 to 140 °C.
Under `c1ccc(-c2ccc(CN3Cc4cccn4Cc4ccccc43)cc2)cc1` stands 135 to 137 °C.
Regarding `COc1ccc(C(=O)Nc2ccccc2)cc1Nc1cc(Cl)cc(Cl)c1`, the melting point lay within 207 to 208 °C.
Molecule `CCc1cc(=O)c2c([nH]1)CCCN2C(=O)C(F)(F)F` yielded a melting point of 271 to 274 °C.
Consider `COc1cc(C(C)=O)ccc1OCCC(C)N1CCN(c2nn(C(=O)c3ccccc3)c3cc(F)ccc23)CC1` (stereo unspecified), for which the melting point was 138 to 140 °C.
`COc1ccc(C=Cc2nnc(CCl)o2)cc1` registered a melting point of 139 to 141 °C.
As for `ClCc1ccc(CCl)o1`, the melting point lay in the range of 27 to 28 °C.
In turn, `N#CC1(c2ccc(F)cc2)C=CC(N2CCN(c3cccnn3)CC2)CC1` (stereo unspecified) displayed a melting point of 189 °C.
The result for `O=C(NO)C(=O)Nc1ccccc1` reads 165 to 167 °C; that for `COC1=C(OC)C(=O)C(N=[N+]=[N-])=C(C)C1=O`, 48 to 50 °C; that for `COCCN1CCC(c2nc3cc(-c4ccc(-n5cnnn5)cc4F)ccc3o2)CC1`, 148 to 152 °C.
Under `NP(N)(=O)NC(=O)c1cccs1` stands 272 to 280 °C.
For the molecule `COCC1CN(c2ccc3ccc(OC)cc3c2)C(=O)O1` (stereo unspecified), the melting point was 95.5 to 96.5 °C.
`COc1nc(C)c(Nc2nc(Cl)cn([C@H](COC(=O)Nc3cccc(C#N)c3)C3CC3)c2=O)cc1C` showed a melting point of 206 to 207 °C.
Turning to `O=[N+]([O-])c1ccc2c(c1)S(=O)(=O)NCN2CCF`, the melting point was in the range of 165 to 166 °C.
The molecule `COc1ccc2nc(NC(=O)C(CC3CCCC3)c3ccc(S(=O)(=O)N(C)Cc4ccccc4)cc3)sc2n1` (stereo unspecified) displayed a melting point of 206 to 208 °C.
Molecule `N#Cc1cnc2cc(F)ccc2c1O` gave a melting point of more than 250 °C.
`CSc1ccc(-c2nn(Cc3ccc(Cl)cc3Cl)c(=O)cc2-c2ccc(F)cc2)cc1` had a melting point of 139 to 140 °C.
`CCCCCCCCCCNC(=O)c1cc(C(=O)NCCCCCCCCCC)cc([N+](=O)[O-])c1`: the melting point was in the range of 115 to 116 °C.
With `Cc1ccc(C(=O)C=Cc2ccc[nH]2)cc1`, the melting point is 158 to 160 °C.
Under `Nc1ccc(-c2noc(-c3cnn4c(C(F)F)cc(-c5ccc(C(F)(F)F)c(F)c5)nc34)n2)cn1` stands 242 °C.
`CNc1nc(-c2ccccc2)ccc1[N+](=O)[O-]` registered a melting point of 98 to 99 °C.
Consider `COc1ccc2cc(C(=O)[C@H](C)OS(=O)(=O)c3ccccc3)ccc2c1`, for which the melting point was 74 to 75 °C.
In turn, `CCCC(=O)Nc1n[nH]c2cc(-c3ccc4c(c3)OCO4)ccc12` came in with a melting point of 240 °C.
In turn, `Nc1ccnn1-c1c(F)c(F)c(C(F)(F)F)c(F)c1F` yielded a melting point of 103 to 104 °C.
Consider `COC(=O)c1nc(-c2ccc(Cl)c(OC)c2F)nc(O)c1OC`, for which the melting point lay in the range of 177 to 179 °C.
Molecule `CCc1cc(=O)c2c([nH]1)CCCN2` displayed a melting point of 206 to 209 °C.
`Cn1c(=S)c(C(=O)C2=C(O)CCCC2=O)nc2ccccc21` displayed a melting point of more than 300 °C.
In the case of `CCN=C(NC#N)NCCSCc1ncccc1Br`, the melting point was 123 to 124 °C.
In turn, `CC(=O)c1ccc(Nc2cc(C)nc(N)n2)cc1` showed a melting point of 194 to 196 °C.
As for `CCOC(=O)c1[nH]c2cc(Cl)cc(Cl)c2c1NCC(=O)c1ccccc1Cc1ccccc1`, the melting point was in the range of 225 to 227 °C.
In the case of `CN1Cc2nc3ccccc3c(=O)n2-c2ccccc2C1=O`, the melting point lay within 204 to 206 °C.
`CCOCc1nc2cnc3ccccc3c2n1CCC(C)C` had a melting point of 64 to 65 °C.
For the molecule `FC1=CC(c2cccnc2)=CC2CCC(=S)NC12` (stereo unspecified), the melting point is 235 °C.
`Cc1nn(-c2cc(F)c(C#N)cc2F)c(C)c1Cl` showed a melting point of 153 °C.
`CN1C(=O)[C@H](NC(=O)CC2CCCCC2)N=C(c2ccccc2)c2ccccc21`: the melting point lay within 144 to 146 °C.
`OCc1cn2c(n1)CN=C(c1ccccn1)c1cc(Br)ccc1-2`: the melting point lay within 176 to 178 °C.
Molecule `CCOc1c(Nc2cccnc2)c(=O)c1=O` returned a melting point of 140 to 145 °C.
With `Cc1cc(C=Cc2ccccc2OCC(O)C(N)C(C)C)on1` (stereo unspecified), the melting point is 106 to 108 °C.
The molecule `CCOC(=O)c1cnc2n(c1=O)C(C)CC=C2Nc1ccccc1` (stereo unspecified) displayed a melting point of 119 to 120 °C.
`N=C(N)Nc1ncc(CSCCN)s1` came in with a melting point of 150 to 153 °C.
As to `Cc1cc2nc(O)nc(O)c2s1`, the melting point was more than 300 °C.
The molecule `COc1ccc2[nH]c(C)c(SC)c2c1` yielded a melting point of 55 to 56.5 °C.
The result for `CCCCCN1C(=O)C(CCc2nnn[nH]2)(NC(=O)c2ccc(Cl)c(Cl)c2)c2ccccc21` (stereo unspecified) reads 142 °C; that for `O=C1c2ccccc2C(=O)c2c(NC3CCCCC3)cccc21`, 145 °C; that for `NC(=O)CN1C(=O)C[C@@H]2CCCC[C@@H]21` (relative stereo), 145 to 146 °C.
`CC(C)P1(=O)c2ccccc2CN1c1cccc(C(F)(F)F)c1` (stereo unspecified) registered a melting point of 117 to 119 °C.
The result for `CCOC(=NC(=O)c1ccncc1)N1Cc2ccccc2-c2ccccc2C1` reads 120 to 122 °C; that for `CCOC(=O)CC(=O)c1cc(Cl)c(F)c(Cl)c1F`, 133 °C; that for `CC(=O)NNc1c(C)cnc2c(NC(=O)c3c(Cl)cccc3Cl)ccc(C)c12`, 234 to 238 °C.
Regarding `Cc1c(SCCCSc2ncccn2)ccnc1CNc1cnc2ccccc2c1`, the melting point fell in the range of 132 to 133 °C.
The result for `CC(C)(C)c1cc(C(C)(C)C)n(Cc2ccc(COc3ccc(CCC(=O)O)c(F)c3)cc2)n1` reads 152 to 153 °C.
Molecule `COC(=O)c1ccc(N2CCNCC2)nc1` yielded a melting point of 91 to 92 °C.
The molecule `COCC1OC(n2cnc3c(NCc4cccc(I)c4)ncnc32)C(O)C1O` (stereo unspecified) displayed a melting point of 155 to 157 °C.
Turning to `CCC1CC2(C)C(CCC3C2CCC2(C)C(OC)CCC32)CC1=O` (stereo unspecified), the melting point lay in the range of 105 to 107 °C.
With `C=CC(=O)OCCOc1ccc(-c2nc(-c3ccc(C)cc3C)nc(-c3ccc(C)cc3C)n2)c(O)c1`, the melting point fell in the range of 128 to 129 °C.
The result for `CN1CCC(Oc2cc3c(cc2F)c(=O)c(C(=O)O)cn3C2CC2)CC1` reads 265 to 269 °C.
For `COc1cccc(NC(=O)NCC(=O)N(c2ccccc2)c2ccccc2)c1`, the melting point was found to be 182 °C.
Molecule `O=C1NC(=O)C(=Cc2ccc(C(=O)CCc3ccccc3)cn2)S1` yielded a melting point of more than 250 °C.
For `Cc1cc(CC=CCc2cc(C)c(O)c(C(C)(C)C)c2)cc(C(C)(C)C)c1O`, the melting point is 99 to 106 °C.
Molecule `Cc1ccc(-c2nc3c(O)cccc3s2)cc1` yielded a melting point of 164 to 166 °C.
Under `O=C(Cc1ccc(Cl)c(Cl)c1)N1CCN(Cc2ccccc2)CC1CO` (stereo unspecified) stands 148 to 150 °C.
Take `COC(=O)C1=C(C)NN=C(c2cccc(Cl)c2)C1c1ccccc1` (stereo unspecified): the melting point came out at 176 °C.
The molecule `CCCCCCCNC(=O)N(C)c1cccc(-c2ccc(CCC(=O)O)c(F)c2)c1` had a melting point of 92 to 93 °C.
`Cc1ccccc1N1C(=O)CN2C(=O)CCC21` (stereo unspecified) had a melting point of 138 to 139 °C.
`CC(C)N(CCC(c1ccccc1)c1cc(Br)ccc1OCc1ccccc1)C(C)C` (stereo unspecified) showed a melting point of 52 to 56 °C.
As for `Cc1cc2c3c(c1)c1c(n3CCNC2)CCC1`, the melting point lay within 168 to 170 °C.
Regarding `Cc1noc(-c2ncn3c2[C@@H]2CCN2C(=O)c2c-3cccc2C(F)(F)F)n1`, the melting point fell in the range of 255 to 256 °C.
Under `CCOc1ccc(C(c2ccc(C(C)(C)C)cc2)C(CC)[N+](=O)[O-])cc1` (stereo unspecified) stands 95 to 97 °C; under `Cc1ccc(N2C(=O)C(O)=C(C(=O)c3ccc(C(C)C)cc3)C2c2ccc(OC(C)(C)C)cc2)nn1` (stereo unspecified), 276 to 277 °C.
`COc1ccc2c3c1OC(c1ccccc1)N3C(=O)C1CCCN1C2=O` (stereo unspecified) came in with a melting point of 157 to 160 °C.
As for `COc1ccccc1-c1ncc(-c2nnn[nH]2)c(=O)[nH]1`, the melting point lay in the range of 282 to 283 °C.
The result for `CCC(=O)NCc1ccc(CN2CCN(c3ccccc3)CC2)cc1` reads 140 to 141 °C.
Under `N#Cc1cccc(NCc2nc3ccc(F)cc3c(=O)n2-c2ccccc2Cl)c1` stands 225 to 228 °C; under `CN1Cc2c(-c3noc(CN4CCCCC4)n3)ncn2-c2ccc(F)cc2C1=O`, 182 to 184 °C; under `CCSC(C)(C)C(=O)CC(=O)Nc1cc(NC(=O)C(CC)Oc2ccc(C(C)(C)CC)cc2C(C)(C)CC)ccc1OC` (stereo unspecified), 65 to 67 °C.
`Cc1ccccc1Cc1cccnn1` showed a melting point of 88 to 89 °C.
In the case of `Cc1ccc(CNC(=O)c2ccc3n2Cc2ccccc2N(C(=O)COc2ccc(Cl)cc2)C3)cc1`, the melting point lay within 174 to 176 °C.
The molecule `CC(=O)Nc1ccc(OCc2nc3ccccc3o2)cc1C` had a melting point of 160 °C.
In turn, `CS(=O)(=O)c1ccc(C(=O)c2cc(Cl)ccc2N)cc1` showed a melting point of 176 to 177 °C.
As for `O=C(O)CN1C(=S)c2cccc3c(Br)ccc1c23`, the melting point amounted to 253 °C.
Molecule `CSC(=O)C(=O)c1cccc(NC=O)n1` displayed a melting point of 163 to 165 °C.
`Cc1cccc(Oc2cccc(NC(=O)c3ccn4c3CSC4c3cccnc3)c2)c1` (stereo unspecified) came in with a melting point of 149 °C.
Take `COc1cc(OC)nc(Oc2ccc3[nH]c(C)c(NC(C)=O)c3c2C(=O)O)n1`: the melting point lay in the range of 230 to 233 °C.
`CCOC(=O)c1cc(C#N)c(C=O)nc1NC`: the melting point lay in the range of 137 to 139 °C.
Molecule `O=C(CCN1CCN(c2cccc(C(F)(F)F)c2)CC1)Nc1ccccc1[N+](=O)[O-]` came in with a melting point of 185 to 188 °C.
Under `COCn1nc(-c2cc(C(C)(C)C)c(O)c(C(C)(C)C)c2)c2cccnc21` stands 113 to 115 °C.
The result for `CCOC(=O)c1cc2ccccc2n1CC1CC(=O)N(Cc2ccccc2)C1` (stereo unspecified) reads 93 to 94 °C.
For `O=S1(=O)CCON=C1c1c(Cl)cccc1Cl`, the melting point is 180 to 182 °C.
As for `CCOC(=O)CCC(C#N)(c1ccc(C(F)(F)F)cc1)N1CCOCC1` (stereo unspecified), the melting point was in the range of 96 to 97 °C.
With `Cn1cc(Br)nc(Nc2ccc3c(c2)CCNC3)c1=O`, the melting point fell in the range of 170 to 171 °C.
